The IC50 is the concentration needed to halve the response being measured.

“And” between values parts separate entries of the source, which are not always exact repeats. Identical values can stand only once.

The values that follow come from PubChem BioAssay AID2384 (Southern Research Specialized Biocontainment Screening …, 2010).

This assay relates to S. typhi GFP reporter counter-screen, fluorescence, 4 h. In words: inhibitors in S. typhi counter-screen strain, dose response, counter-screen for PhoP regulon inhibitor project, fluorescence, 4 h (AID 2384). For orientation: Counterscreens check selectivity or assay interference.
For the compound `CCn1cc(C(=O)O)c(=O)c2cc(F)c(N3CCN(S(=O)(=O)c4ccc(NC(C)=O)cc4)CC3)cc21`, the half-inhibitory concentration (IC50) is 131 µM.

Take `CCCCCCCCCCOC(=O)Cn1c(COc2ccc(OC)cc2)[n+](C)c2ccccc21`: the 50% inhibitory concentration (IC50) was 12.1 µM and 10 µM.

Regarding `COc1cccc2c(=O)c(C(=O)O)c[nH]c12`, the IC50 is 113 µM.

`O=CN/N=C/c1c(O)ccc2ccccc12`: the concentration for half-maximal inhibition (IC50) is 33.1 µM.

`CC1COc2c(N3CCN(C)CC3)c(F)cc3c(=O)c(C(=O)O)cn1c23` (centres undefined): the IC50 is 1.73 µM.

Take `CN(Cc1ccccc1)CC(O)COc1ccc(CNCCCOc2cccnc2)cc1` (centres undefined): the concentration for half-maximal inhibition (IC50) is 53.3 µM.

With `NC1=NC[C@H](Cc2ccccc2)N1CCCCC1CCCCC1`, the IC50 is 19.4 µM.

As for `Cc1[nH]c2ccc(OC(F)(F)F)cc2c1CCNCc1ccc(Cl)cc1`, the 50% inhibitory concentration (IC50) was 20.5 µM.

Regarding `C#CCOCCOCCOCCNc1nc(N2CCN(C(=O)CCCCCCCCCCNC(=O)[C@H](CCCCN)n3cc(CCO)nn3)CC2)nc(N2CCN(C(=O)CCCCCCCCCCNC(=O)[C@H](CCCCN)n3cc(CCO)nn3)CC2)n1`, the IC50 is 36.3 µM.

Regarding `O=C(/C=C/c1cc(Br)ccc1O)c1ccco1`, the half-inhibitory concentration (IC50) is 52.5 µM.

For the compound `O=C(N/N=C/c1ccc([N+](=O)[O-])s1)c1ccccc1Br`, the half-inhibitory concentration (IC50) was 77.5 µM.

As to `CN(C)CCCN(C(=O)c1ccc2c(c1)CCCC2)c1nc2ccc(Cl)cc2s1`, the IC50 is 54.1 µM.

Consider `O=C(O)c1cc2c(cn1)[nH]c1ccccc12`, for which the IC50 was 92.6 µM.

In the case of `COc1ccc(CNCCc2ccc(Cl)cc2)cc1OCc1ccccc1`, the IC50 was 69.3 µM.

As to `O=C1C=C(Nc2ccccc2O)c2ccccc2C1=O`, the 50% inhibitory concentration (IC50) is 101 µM.

As for `O=[N+]([O-])/C=C/c1cc2ccccc2[nH]1`, the half-inhibitory concentration (IC50) is 36.9 µM.

For the compound `Fc1ccc(NC(=S)Nc2cc(-c3ccccc3)[nH]n2)cc1Cl`, the 50% inhibitory concentration (IC50) was 71.7 µM.

As for `CCn1cc(C(=O)O)c(=O)c2cc(F)c(N3CCN(C(=S)NC(=O)c4ccc(Br)cc4)CC3)cc21`, the IC50 is 56 µM.

For the compound `C[C@H]1c2cccc(O)c2C(O)=C2C(=O)C3(O)C(O)=C(C(N)=O)C(=O)[C@@H](N(C)C)[C@@H]3[C@@H](O)[C@@H]21` (some centres undefined), the half-inhibitory concentration (IC50) is 0.82 µM.

Regarding `Cc1ccc(C(C[N+](=O)[O-])Sc2ccc(N)cc2)cc1` (centres undefined), the IC50 is 26.7 µM.

As to `Cc1cc(C)n(-c2nc(SCCN(C)C)c3c4c(sc3n2)CCCC4)n1`, the half-maximal inhibitory concentration (IC50) was 37.8 µM.

As for `CCOc1ccc(Nc2nc(N)c3ccccc3n2)cc1`, the IC50 was 44.4 µM.

Consider `Oc1c(CN2CCN(c3ccccn3)CC2)cc(Cl)c2cccnc12`, for which the IC50 was 17.7 µM.

As for `COc1ccc(Nc2cc(C)c3c(O)cccc3n2)cc1`, the half-maximal inhibitory concentration (IC50) is 24.9 µM.

Regarding `O=C(Nc1ccc2nc(-c3ccc(Br)o3)[nH]c2c1)c1cccs1`, the concentration for half-maximal inhibition (IC50) is 15 µM.

Take `CCc1ccc(N2CC(C(=O)N/N=C/c3cc([N+](=O)[O-])ccc3O)CC2=O)cc1` (centres undefined): the half-maximal inhibitory concentration (IC50) was 48.7 µM.

For the compound `c1cc2c(cc1C1CCCCC1)c1c3n2CCCNC3CCC1` (centres undefined), the concentration for half-maximal inhibition (IC50) is 20.3 µM.

With `Cc1ccc(C(=O)O)cc1N=Cc1cc(Br)cc(Br)c1O`, the half-inhibitory concentration (IC50) was 16.7 µM.

Regarding `COc1ccccc1Nc1nc(NCc2ccco2)c2ccccc2n1`, the IC50 was 56.3 µM.

For the compound `Cc1ccc(C(OCC(O)CNCc2ccc(F)cc2)c2ccccc2)cc1` (centres undefined), the IC50 was 37 µM.

Take `C#CCOCCOCCOCCNc1nc(N2CCN(C(=O)CCCCCCCCCCNC(=O)[C@@H](CCSC)n3cc(CCO)nn3)CC2)nc(N2CCN(C(=O)CCCCCCCCCCNC(=O)[C@H]([C@@H](C)CC)n3cc(CCCCN=C(N)N)nn3)CC2)n1`: the IC50 is 83.1 µM.

As to `Nc1nc(N)c(Cc2ccc(Cl)cc2Cl)c(N)n1`, the 50% inhibitory concentration (IC50) was 61.8 µM.

Turning to `c1ccc(CN2CCN(c3ncnc4c3[nH]c3ccccc34)CC2)cc1`, the IC50 is 73.8 µM.

Consider `CN(C)c1ccc2nc3ccc(=[N+](C)C)cc-3sc2c1`, for which the half-inhibitory concentration (IC50) is 45.3 µM.

As to `C#CCOCCOCCOCCNc1nc(N2CCN(C(=O)CCCCCCCCCCNC(=O)[C@H](CCCCN)n3cc(CCO)nn3)CC2)nc(N2CCN(C(=O)CCCCCCCCCCNC(=O)[C@H](CCCN=C(N)N)n3cc(C[C@@H](C)CC)nn3)CC2)n1`, the concentration for half-maximal inhibition (IC50) was 18.1 µM.

Take `CCOC(=O)c1ccc(CNCc2ccc(Br)cc2)cc1`: the concentration for half-maximal inhibition (IC50) was 45.4 µM.

Consider `CCCCCCCCCn1c2c(c(=N)c3c1CCC3)CCC2`, for which the IC50 was 10.6 µM.

As for `Cc1ccc(-c2cc(-c3ccc(C)cc3)[n+](-c3ccccc3)c(-c3ccc(C)cc3)c2)cc1`, the IC50 was 23.6 µM.

With `CC[C@@H](C)[C@H](CN[C@H](CNC)C(C)C)NC[C@@H](C)c1ccc(CC(C)C)cc1`, the concentration for half-maximal inhibition (IC50) was 26.2 µM.

For the compound `Cc1ccc2c(c1)sc(-c1ccc(N(C)C)cc1)[n+]2C`, the IC50 is 35.3 µM.

Turning to `CN1CCN(CCCN2c3ccccc3Sc3ccc(C(F)(F)F)cc32)CC1`, the IC50 was 36.6 µM.

As to `CC1CCN(CCCNC(=O)c2ccc3c(=O)n(Cc4ccc(Cl)cc4)c(=S)[nH]c3c2)CC1`, the IC50 is 47.8 µM.

In the case of `O=C(N/N=C/c1c(O)ccc2ccccc12)c1ccc(CO)nc1`, the half-maximal inhibitory concentration (IC50) was 81.7 µM.

As for `O=C(N/N=C\c1cccc([N+](=O)[O-])c1O)C1COc2ccccc2O1` (centres undefined), the IC50 was 11.7 µM.

Regarding `CC1CCN(CCC(=O)Nc2ccc(Cl)cc2)CC1`, the half-inhibitory concentration (IC50) was 105 µM.

Take `O=C1CSC(=S)N1c1cccnc1`: the 50% inhibitory concentration (IC50) is 78.8 µM.

On to `CCCCCCOC(=O)C[N+](C)(C)CCOC1CC2CCC1(C)C2(C)C` (centres undefined), for which the IC50 was 27 µM.

On to `O=C(C[n+]1cc(Br)cc2ccccc21)c1ccc(F)cc1`, for which the half-inhibitory concentration (IC50) was 75.7 µM.

With `NC1=NC[C@H](Cc2ccc(O)cc2)N1CCc1cccc2ccccc12`, the IC50 is 36.5 µM.

Turning to `COc1cc(CNCCc2c[nH]c3ccccc23)ccc1OCc1ccccc1F`, the IC50 is 70.8 µM.

Take `NS(=O)(=O)OCCCc1ccc(C(F)(F)F)cc1`: the 50% inhibitory concentration (IC50) is 145 µM.

Regarding `O=C(C[n+]1cc(-c2ccc(Cl)cc2)n2c1CCC2)Nc1nc(-c2ccccc2)cs1`, the half-maximal inhibitory concentration (IC50) was 20.1 µM.

As to `NC1=NC[C@@H](Cc2ccc(O)cc2)N1CCCCC1CCCCC1`, the concentration for half-maximal inhibition (IC50) was 14.8 µM.

For `CNC[C@@H](Cc1ccccc1)NC[C@@H](CC1CCCCC1)NCCCc1ccccc1`, the IC50 is 19.8 µM.

`Cc1ccc(C(=O)NNC(=S)NC(=O)c2ccccc2)cc1`: the IC50 is 57.8 µM.

In the case of `NS(=O)(=O)c1ccc(CNc2ccc3ccccc3n2)cc1`, the IC50 is 145 µM.

On to `CN1/C(=C\C=C\C2=[N+](C)c3ccc4ccccc4c3C2(C)C)C(C)(C)c2ccccc21`, for which the concentration for half-maximal inhibition (IC50) was 8.85 µM.

Take `Nc1cccc2c(=O)c3ccccc3[nH]c12`: the half-inhibitory concentration (IC50) is 37.6 µM.

For the compound `Clc1ccc(OCCCNCc2ccccc2)c(Br)c1`, the IC50 was 28.4 µM.

For `Cc1cc(/C=C\c2ccc3cc(N(C)C)ccc3[n+]2C)c(C)n1-c1ccccc1`, the IC50 was 21.7 µM.

Take `Cc1ccc(NNS(=O)(=O)c2ccc(C)cc2)cc1`: the IC50 is 111 µM.

With `Nc1nc(Nc2ccc(Cl)cc2)nc2ccccc12`, the IC50 was 17 µM.

On to `Cc1ccc2sc(N(CCCN(C)C)C(=O)c3ccc(Br)s3)nc2c1C`, for which the concentration for half-maximal inhibition (IC50) was 36.6 µM.

With `CCCCc1ccc(NC2=NCCCS2)cc1`, the IC50 is 80.5 µM.

As to `CCOC(=O)N/N=C(/C)c1ccc([N+](=O)[O-])o1`, the IC50 was 73.6 µM.

For the compound `CC(Nc1nc(N2CCCC2)nc2ccccc12)c1ccccc1` (centres undefined), the half-maximal inhibitory concentration (IC50) is 76 µM.

Take `c1ccc(Nc2ccnc(Nc3ccccc3)n2)cc1`: the IC50 was 38.9 µM.

Turning to `c1ccc(CN2CCN(c3nc(NCc4ccco4)c4ccccc4n3)CC2)cc1`, the IC50 is 64.6 µM.

Consider `O=C(Nc1cccc(N=Cc2cc(Cl)cc(Br)c2O)c1)c1ccco1`, for which the 50% inhibitory concentration (IC50) is 60 µM.

Turning to `CCCCCC(CC(=O)NO)C(=O)NC(C(=O)N1CCCC1CO)C(C)C` (centres undefined), the half-maximal inhibitory concentration (IC50) was 20.3 µM.

With `CCc1ccc(-c2nn(-c3ccccc3)cc2CSC(=N)N)cc1`, the IC50 was 19.3 µM.

Consider `O=C(CCN1CCOCC1)N/N=C/c1cc(Br)cc(Br)c1O`, for which the 50% inhibitory concentration (IC50) is 27.3 µM.

As to `Cc1ccc2c(c1)C1CN(C)CCC1N2C(=O)COc1ccccc1F` (centres undefined), the IC50 was 110 µM.

As to `CCCCOc1ccc(NC2=NC3(CCCCC3)N=C(N)N2)cc1`, the IC50 was 34.7 µM.

With `Cc1nnc(N/N=C/c2ccccn2)[nH]c1=O`, the IC50 was 31.4 µM.

`Cc1ccc(Nc2cc(C)nn2-c2nc(C)cc(=O)[nH]2)cc1`: the half-inhibitory concentration (IC50) was 11.2 µM.

Regarding `N#C/C(=N\Nc1ccc([N+](=O)[O-])cc1)C(N)=S`, the half-inhibitory concentration (IC50) was 108 µM.

On to `O=C1C=CC(=O)N1CCCCCCN1C(=O)C=CC1=O`, for which the IC50 is 79.8 µM.

In the case of `Cc1ccc(NC(=O)CSC(N)=O)cc1Cl`, the IC50 is 82.1 µM.

Consider `CCOC(=O)C1=C(O)c2ccccc2C(=O)/C1=C\c1ccc(C)cc1`, for which the 50% inhibitory concentration (IC50) was 137 µM.

For `O=C(Oc1c(Cl)cc(Cl)c2cccnc12)c1ccco1`, the IC50 is 15.6 µM.

On to `OC(CNCCc1ccccc1)COc1ccc(OCC(O)CNCCc2ccccc2)cc1` (centres undefined), for which the half-inhibitory concentration (IC50) is 21.3 µM.

`Cc1ccc(S(=O)(=O)CCC(=O)c2ccc(O)cc2O)cc1`: the IC50 was 57.5 µM.

In the case of `O=C(Nc1nnc(-c2cccs2)o1)c1cccc(Oc2ccccc2)c1`, the IC50 is 59.6 µM.

For the compound `COc1nsnc1NS(=O)(=O)c1ccc(NC(=S)NC(=O)c2cccnc2)cc1`, the IC50 was 68.5 µM.

As for `CCn1cc(C(=O)O)c(=O)c2cc3c(cc21)OCO3`, the concentration for half-maximal inhibition (IC50) was 80.8 µM.

Take `O=C(Nc1ccc(Cc2ccncc2)cc1)c1ccc([N+](=O)[O-])o1`: the IC50 was 126 µM.

On to `c1ccc2cc3c(NCCN4CCOCC4)ccnc3cc2c1`, for which the IC50 was 88.2 µM.

`CC1=NOC(=O)/C1=C/c1ccc(O)cc1`: the IC50 is 146 µM.

Turning to `C=CCOc1ccc(Cl)cc1CNC1CCCC1`, the IC50 was 102 µM.

For the compound `Clc1ccc(C[n+]2cc(-c3ccc(Cl)cc3)n3c2CCC3)cc1`, the IC50 was 37.7 µM.

With `CCCCCCCCCCCCCCCC[N+](C)(C)C`, the IC50 was 19.3 µM.

Regarding `CCN1CCN(Cc2ccc(NC(=O)c3cc(NC(=O)c4cc(-c5ccc(OC)cc5)n[nH]4)cc(OC)c3)cc2C(F)(F)F)CC1`, the IC50 was 145 µM.

Take `CN1CCN(c2c(F)cc3c(=O)c(C(=O)O)cn4c3c2SCC4)CC1`: the 50% inhibitory concentration (IC50) is 6.28 µM and 8.88 µM.

As for `O=c1c2ccccc2[nH]c2ccccc12`, the IC50 is 62 µM.

Regarding `COc1ccc(C(=O)NC(=S)NNC(=O)c2cccc(C)c2)cc1`, the half-maximal inhibitory concentration (IC50) was 48.8 µM.

On to `Cc1ccc(C(C[N+](=O)[O-])c2c(N)n(C)c(=O)n(C)c2=O)cc1` (centres undefined), for which the concentration for half-maximal inhibition (IC50) is 61.3 µM.

As for `Oc1ccc(CN2CCN(Cc3ccccc3)CC2)c2cccnc12`, the concentration for half-maximal inhibition (IC50) was 25.7 µM.

Take `COc1ccc2nc(N(CCN(C)C)C(=O)/C=C/c3cccs3)sc2c1`: the half-maximal inhibitory concentration (IC50) was 65.8 µM.
